We go through 56 molecules from ChEMBL document CHEMBL5728630, “Aryl, heteroaryl, and heterocyclic pharmaceutical compounds for treatment of medical disorders” (2021).

The target in the assay is Complement factor D (Homo sapiens, UniProt P00746). The assay can be described thus: Factor D Assay: Human Factor D (purified from human serum, Complement Technology, Inc.) at 80 nM final concentration is incubated with test compound at various concentrations for 5 min at room temperature in 50 mM Tris, 1M NaCl, pH 7.5. A synthetic substrate Z-L-Lys-SBz and DTNB (Ellman's reagent) are added to final concentrations of 100 μM each. Absorbance at 405 nm (A405) is recorded at 30 second intervals for 30 min using a microplate spectrophotometer. IC50 values are calculated by nonlinear regression of complement Factor D reaction rates as a function of test compound concentration.
Complement factor D, sequence (P00746 whole entry): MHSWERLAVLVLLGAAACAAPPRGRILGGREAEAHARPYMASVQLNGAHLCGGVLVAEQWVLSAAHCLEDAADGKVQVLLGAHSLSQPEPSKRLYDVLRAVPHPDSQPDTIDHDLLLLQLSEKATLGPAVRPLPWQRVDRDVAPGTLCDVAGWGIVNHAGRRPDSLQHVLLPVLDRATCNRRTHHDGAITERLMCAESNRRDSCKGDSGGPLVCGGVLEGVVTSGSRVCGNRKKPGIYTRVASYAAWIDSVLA

Take `CC(=O)c1nn(CC(=O)N2[C@H](C(=O)Nc3nc(Br)ccc3CN3CCC(S(C)(=O)=O)CC3)C[C@@]3(C)C[C@@H]23)c2c(C)cc(-c3cnc(C)nc3)cc12`: the IC50 was under 1000 nM. Regarding `Cc1ncc(-c2cc(C)c3c(c2)c(C(=O)N2CC4(CCC4)C2)nn3CC(=O)N2[C@H](C(=O)Nc3nc(Br)ccc3C)C[C@@]3(C)C[C@@H]23)cn1`, the IC50 was over 10000 nM. Take `Cc1ncc(-c2cc3c(C(N)=O)nn(CC(=O)N4[C@H](C(=O)Nc5nc(Br)c(F)cc5C)C[C@@]5(C)C[C@@H]45)c3cn2)cn1`: the IC50 was under 1000 nM. For `CC(=O)c1nn(CC(=O)N2[C@H](C(=O)Nc3nc(Br)ccc3COCCF)C[C@@]3(C)C[C@@H]23)c2cnc(-c3cnc(C)nc3)cc12` the value was under 1000 nM; for `CC(=O)c1nn(CC(=O)N2[C@H](C(=O)NCCCc3ccccc3)C[C@@]3(C)C[C@@H]23)c2c(C)cc(-c3cnc(C)nc3)cc12`, under 1000 nM. For `CC(=O)c1nn(CC(=O)N2[C@H](C(=O)Nc3cnc(C)c(Br)n3)C[C@@]3(C)C[C@@H]23)c2c(C)cc(-c3cnc(C)nc3)cc12` the value was under 1000 nM; for `CC(=O)c1nn(CC(=O)N2[C@H](C(=O)NCCc3ccccc3)C[C@@]3(C)C[C@@H]23)c2c(C)cc(-c3cnc(C)nc3)cc12`, under 1000 nM. The figure for `CC(=O)c1nn(CC(=O)N2[C@H](C(=O)NCc3ccccc3)C[C@@]3(C)C[C@@H]23)c2ccc(-c3cnc(C)nc3)cc12` is under 1000 nM. In the case of `CC(=O)c1nn(CC(=O)N2[C@H](C(=O)NCC(C)C)C[C@@]3(C)C[C@@H]23)c2c(C)cc(-c3cnc(C)nc3)cc12`, the IC50 is under 1000 nM.

With `CC(=O)c1nn(CC(=O)N2[C@H](C(=O)Nc3nc(Br)ccc3C)C[C@@]3(C)C[C@@H]23)c2c(C(C)F)cc(-c3cnc(C)nc3)cc12` (stereo partly specified), the half-inhibitory concentration (IC50) was under 1000 nM.

Take `CC(=O)c1nn(CC(=O)N2[C@H](C(=O)Nc3cncc(Br)n3)C[C@@]3(C)C[C@@H]23)c2cnc(-c3cnc(C)nc3)cc12`: the IC50 is under 1000 nM. The figure for `CC(=O)c1nn(CC(=O)N2[C@H](C(=O)Nc3nc(Br)ccc3C)C[C@@]3(CNC(=O)C(F)(F)F)C[C@@H]23)c2c(C)cc(-c3cnc(C)nc3)cc12` is under 1000 nM; for `CC(=O)c1nn(CC(=O)N2[C@H](C(=O)NCCC3CCCCC3)C[C@@]3(C)C[C@@H]23)c2c(C)cc(-c3cnc(C)nc3)cc12` it is under 1000 nM; for `COc1ncc(-c2cc3c(C(C)=O)nn(CC(=O)N4[C@H](C(=O)Nc5nc(Br)ccc5C)C[C@@]5(C)C[C@@H]45)c3c(C)n2)cn1` it is under 1000 nM. The figure for `CC(=O)c1nn(CC(=O)N2[C@H](C(=O)Nc3nc(Br)ccc3C)C[C@@]3(C4COC(C)(C)O4)C[C@@H]23)c2cnc(-c3cnc(C)nc3)cc12` (stereo partly specified) is under 1000 nM; for `C#CC(C)(C)NC(=O)c1nn(CC(=O)N2[C@H](C(=O)Nc3nc(Br)ccc3C)C[C@@]3(C)C[C@@H]23)c2ccc(-c3cnc(C)nc3)cc12` it is over 10000 nM.

Turning to `COc1ccccc1CNC(=O)[C@@H]1C[C@@]2(C)C[C@H]2N1C(=O)Cn1nc(C(C)=O)c2cc(-c3cnc(C)nc3)cc(C)c21`, the IC50 was under 1000 nM. Consider `CC(=O)c1nn(CC(=O)N2[C@H](C(=O)Nc3cc(C)cc(Br)n3)C[C@@]3(C)C[C@@H]23)c2c(C)nc(-c3cnc(C)nc3)cc12`, for which the IC50 was under 1000 nM. The figure for `CC(=O)c1nn(CC(=O)N2[C@H](C(=O)Nc3cncc(Br)n3)C[C@@]3(C)C[C@@H]23)c2c(C)nc(-c3cnc(C)nc3)cc12` is under 1000 nM; for `CC(=O)c1nn(CC(=O)N2[C@H](C(=O)NCc3ccncc3)C[C@@]3(C)C[C@@H]23)c2c(C)cc(-c3cnc(C)nc3)cc12` it is under 1000 nM. `CC(=O)c1nn(CC(=O)N2[C@H](C(=O)Nc3nc(Br)ccc3C)C[C@@]3(CCCF)C[C@@H]23)c2cnc(-c3cnc(C)nc3)cc12`: the IC50 is under 1000 nM.

For `CC(=O)c1nn(CC(=O)N2[C@H](C(=O)Nc3nc(Br)ccc3C)C[C@@]3(C)C[C@@H]23)c2c(C)cc(-c3cnc(O)nc3)cc12`, the IC50 was under 1000 nM. On to `COc1ccc(CNC(=O)[C@@H]2C[C@@]3(C)C[C@H]3N2C(=O)Cn2nc(C(C)=O)c3cc(-c4cnc(C)nc4)cc(C)c32)cc1`, for which the IC50 was under 1000 nM. For `CC(=O)c1nn(CC(=O)N2[C@H](C(=O)Nc3nc(Br)ccc3C)C[C@@]3(C)C[C@@H]23)c2c(C(F)(F)F)nc(-c3cnc(C)nc3)cc12` the value was under 1000 nM; for `CCC[C@@]12C[C@@H](C(=O)Nc3nc(Br)ccc3C)N(C(=O)Cn3nc(C(C)=O)c4cc(-c5cnc(C)nc5)ncc43)[C@@H]1C2`, under 1000 nM. For `CCCNC(=O)[C@@H]1C[C@@]2(C)C[C@H]2N1C(=O)Cn1nc(C(C)=O)c2cc(-c3cnc(C)nc3)cc(C)c21` the value was under 1000 nM; for `CC(=O)c1nn(CC(=O)N2[C@H](C(=O)Nc3nc(OC(F)(F)F)ccc3C)C[C@@]3(C)C[C@@H]23)c2c(C)nc(-c3cnc(C)nc3)cc12`, under 1000 nM; for `Cc1ncc(-c2ccc3c(c2)c(C(=O)NC(C)(C)C2CC2)nn3CC(=O)N2[C@H](C(=O)Nc3nc(Br)ccc3C)C[C@@]3(C)C[C@@H]23)cn1`, over 10000 nM. The figure for `CC(=O)c1nn(CC(=O)N2[C@H](C(=O)Nc3nc(Br)ccc3C)C[C@@]3(CC(F)F)C[C@@H]23)c2cnc(-c3cnc(C)nc3)cc12` is under 1000 nM. Take `CC(=O)c1nn(CC(=O)N2[C@H](C(=O)Nc3nc(Br)ccc3C)C[C@@]3(CN4CCC4)C[C@@H]23)c2c(C)nc(-c3cnc(C)nc3)cc12`: the IC50 was under 1000 nM. The figure for `CC(=O)c1nn(CC(=O)N2[C@H](C(=O)Nc3nc(Br)ccc3C(O)CO)C[C@@]3(C)C[C@@H]23)c2cnc(-c3cnc(C)nc3)cc12` (stereo partly specified) is under 1000 nM.

For `CC(=O)c1nn(CC(=O)N2[C@H](C(=O)Nc3nc(Br)ccc3C)C[C@@]3(C)C[C@@H]23)c2ccc(-c3cnc(C)nc3)cc12` [VEMIRCOPAN], the IC50 is over 10000 nM. As to `CC(=O)c1nn(CC(=O)N2[C@H](C(=O)NCc3ccc(F)cc3)C[C@@]3(C)C[C@@H]23)c2c(C)cc(-c3cnc(C)nc3)cc12`, the IC50 is under 1000 nM. On to `CC(=O)c1nn(CC(=O)N2[C@H](C(=O)Nc3nc(Br)ccc3C)C[C@@]3(CNC(=O)C4CCCC4(F)F)C[C@@H]23)c2c(C)cc(-c3cnc(C)nc3)cc12` (stereo partly specified), for which the IC50 was under 1000 nM. For `CC(=O)c1nn(CC(=O)N2[C@H](C(=O)N[C@@H](C)c3ccccc3)C[C@@]3(C)C[C@@H]23)c2c(C)cc(-c3cnc(C)nc3)cc12`, the half-maximal inhibitory concentration (IC50) was under 1000 nM. The figure for `CC(=O)c1nn(CC(=O)N2C[C@H](F)C[C@H]2C(=O)Nc2nc(Br)ccc2C)c2ccc(-c3cnc(OC4CS(=O)(=O)C4)nc3)cc12` is under 1000 nM; for `CC(=O)c1nn(CC(=O)N2[C@H](C(=O)NCc3cccc(F)c3)C[C@@]3(C)C[C@@H]23)c2c(C)cc(-c3cnc(C)nc3)cc12` it is under 1000 nM; for `COCc1ccc(Br)nc1NC(=O)[C@@H]1C[C@@]2(CN(C)C)C[C@H]2N1C(=O)Cn1nc(C(C)=O)c2cc(-c3cnc(C)nc3)ccc21` it is under 1000 nM. For `C#CCNC(=O)c1nn(CC(=O)N2[C@H](C(=O)Nc3nc(Br)ccc3C)C[C@@]3(C)C[C@@H]23)c2ccc(-c3cnc(C)nc3)cc12` the value was under 1000 nM. Take `COC(=O)Cc1ccc(Br)nc1NC(=O)[C@@H]1C[C@@H](F)CN1C(=O)Cn1nc(C(C)=O)c2cc(-c3cnc(C)nc3)ccc21`: the IC50 was under 1000 nM. The figure for `CC[C@@]12C[C@@H](C(=O)Nc3nc(Br)ccc3C)N(C(=O)Cn3nc(C(C)=O)c4cc(-c5cnc(C)nc5)ncc43)[C@@H]1C2` is under 1000 nM; for `CC(=O)c1nn(CC(=O)N2[C@H](C(=O)NCc3cccnn3)C[C@@]3(C)C[C@@H]23)c2c(C)cc(-c3cnc(C)nc3)cc12` it is under 1000 nM; for `CC(=O)c1nn(CC(=O)N2[C@H](C(=O)Nc3nc(Br)ccc3C)C[C@@]3(CN4CC(F)(F)C4)C[C@@H]23)c2cnc(-c3cnc(C)nc3)cc12` it is under 1000 nM. For `CC(=O)c1nn(CC(=O)N2[C@H](C(=O)Nc3nc(Br)ccc3C)C[C@@]3(CNCc4ccccc4F)C[C@@H]23)c2c(C)cc(-c3cnc(C)nc3)cc12`, the IC50 was under 1000 nM.

Take `CC(=O)c1nn(CC(=O)N2[C@H](C(=O)Nc3nc(Br)ccc3F)C[C@@]3(C)C[C@@H]23)c2cnc(-c3cnc(C)nc3)cc12`: the IC50 is under 1000 nM. In the case of `CC(=O)c1nn(CC(=O)N2[C@H](C(=O)Nc3nc(Br)ccc3C)C[C@@]3(/C=N/O)C[C@@H]23)c2cnc(-c3cnc(C)nc3)cc12`, the IC50 is under 1000 nM.

Turning to `CC(=O)c1nn(CC(=O)N2[C@H](C(=O)Nc3nc(Br)ccc3C)C[C@@]3(CCF)C[C@@H]23)c2cnc(-c3cnc(C)nc3)cc12`, the half-inhibitory concentration (IC50) is under 1000 nM. On to `CCCNC(=O)[C@@H]1C[C@@]2(C)C[C@H]2N1C(=O)Cn1nc(C(C)=O)c2cc(-c3cnc(C)nc3)ccc21`, for which the IC50 is under 1000 nM. The figure for `CC(=O)c1nn(CC(=O)N2[C@H](C(=O)NCCCN)C[C@@]3(C)C[C@@H]23)c2ccc(-c3cnc(C)nc3)cc12` is over 10000 nM; for `CC(=O)c1nn(CC(=O)N2[C@H](C(=O)NCc3cccc(Cl)c3F)C[C@@]3(C)C[C@@H]23)c2c(C)cc(-c3cnc(C)nc3)cc12` it is under 1000 nM; for `CNC(=O)c1nn(CC(=O)N2[C@H](C(=O)Nc3nc(Br)ccc3C)C[C@@]3(C)C[C@@H]23)c2ccc(-c3cnc(C)nc3)cc12` it is under 1000 nM. `CC(=O)c1cn(CC(=O)N2[C@H](C(=O)Nc3nc(Br)ccc3C)C[C@@]3(C)C[C@@H]23)c2cnc(-c3cnc(C)nc3)cc12`: the IC50 is under 1000 nM. `C=CCCc1cc(-c2cnc(C)nc2)cc2c(C(C)=O)nn(CC(=O)N3[C@H](C(=O)Nc4nc(Br)ccc4C)C[C@@]4(COCC=C)C[C@@H]34)c12`: the IC50 was under 1000 nM. The figure for `CC(=O)c1nn(CC(=O)N2[C@H](C(=O)Nc3nc(Br)ccc3C)C[C@@]3(C#N)C[C@@H]23)c2cnc(-c3cnc(C)nc3)cc12` is under 1000 nM.

As for `COCc1ccc(Br)nc1NC(=O)[C@@H]1C[C@@]2(C)C[C@H]2N1C(=O)Cn1nc(C(C)=O)c2cc(-c3cnc(C)nc3)cc(COC)c21`, the IC50 was under 1000 nM. For `CC(=O)c1nn(CC(=O)N2[C@H](C(=O)Nc3cccc(-c4ccccc4Cl)c3F)C[C@@]3(C)C[C@@H]23)c2c(C)cc(-c3cnc(C)nc3)cc12` the value was under 1000 nM.
